The values that follow come from patent US8236359B2, “Use of phytoecdysones in the preparation of a composition for acting on the metabolic syndrome” (Institut Biophytis SAS, priority 2007, dated 2012).

The test system of test [1] is male mice C57 BL/6. Briefly: Effect of phytoecdysones on mice subjected to a fat (lard, inductor) diet for three weeks. In kind it is in vivo, mice (Mus musculus line C57BI6). As to the method:
A test is carried out for studying the effect of phytoecdysones on mice subjected to a fat diet for three weeks
The fat diet or inductor diet consists in supplying large amounts of fat matter in the form of lard. The mice selected for this study are male mice C57 BL/6, 6-weeks old at the beginning of this inductor diet. Such mice are a preferred study model for analyzing the impact of the quinoa extract enriched with phytoecdysones according to the invention on the physiological parameters of the metabolic syndrome.
The inductor diet is a diet enriched with lard.
(§1) The 24 mice of each series have been subjected to a diet, such as detailed in the table 2, for three weeks and have been treated at the same time with the pure molecule, or a quinoa extract enriched up to 1.6% (2.24% the last treatment week for the control series) or 7% of 20-hydroxyecdysone (20E). The concentration of 20-hydroxyecdysone is adjusted to 40 mg per kg of food.
(§2) While taking account of the amount of food ingested on average by the mice, the administered dose of 20E corresponds in the three treatments to 5 mg of 20E per kg of the body weight and per day. The food is supplied in excess, three times a week, for both diets and the three treatments. On average, 40 g of food are supplied for each cage and per day, i.e. 6.5 g of food for each mouse and per day.
(§3) The table 2 below indicates in more detail the composition of the food diet to which the mice are subjected.
(§4) At the time of the sacrifice, the weight of the mice (Bwt), as well as the weight of the liver, the epididymis adipose tissue (EAT) and the subcutaneous adipose tissue (SCAT) are measured.
(§5) Cells of the epididymis adipose tissue are taken for carrying out a count and a morphological analysis.

Test [2] relates to male mice C57 BL/6. Briefly: Effect of phytoecdysones on mice subjected to a normal control diet. The class given is in vivo, mice (Mus musculus line C57BI6). As to the method: At the same time, another test is carried out for studying the effect of these same phytoecdysones on mice which have not been subjected to a fat diet, which is considered as a normal control diet.
as §1, §2, §3, §4, §5

`CC(C)(O)CC[C@@H](O)[C@](C)(O)[C@H]1CC[C@@]2(O)C3=CC(=O)[C@@H]4C[C@@H](O)[C@@H](O)C[C@]4(C)[C@H]3CC[C@]12C` [pure molecule, 20-hydroxyecdysone] came in with a mode of the distribution of adipocyte diameters in the test with male mice C57 BL/6 [1] (FIG. 5, lard control about 70) of 60 µm. In addition, in the test with male mice C57 BL/6 [1] (FIG. 5, lard control up to 110), the maximum adipocyte diameter of the distribution turned out to be 90 µm. In the test on male mice C57 BL/6 [1] (epididymis adipose tissue cells, FIG. 4), the “effect on adipocyte diameter” value is on record as “reduces the adipocyte sizes in a significant manner”. Besides, the “obesity / adiposity induced by hyperlipidical and hypercalorific diet (conclusion)” value in the test on male mice C57 BL/6 [1] (gonad and subcutaneous tissue) was “avoid a development of the an obesity”. Also, the “decrease of the adiposity, gonad (epididymis) adipose tissue (% EAT)” value with male mice C57 BL/6 [1] (three weeks, 5 mg 20E/kg/day, versus untreated lard-diet mice, FIG. 2) came to 50%. Further, in the test with male mice C57 BL/6 [2], the “effect in non obese animals with a normal diet (conclusion)” value is listed as “no effect”. In the test on male mice C57 BL/6 [2] (three weeks, 5 mg 20E/kg/day, versus untreated mice, FIG. 2), the “adiposity, gonad (epididymis) adipose tissue (% EAT)” value is recorded as “does not modify the adiposity”.
